Reference: ChEMBL document CHEMBL1158920, “Tubulosine: an antitumor constituent of Pogonopus speciosus” (J Nat Prod, 1990)
Converted amounts (≈) assume the structure as drawn.

How the values were obtained:
MCF7 = assay: Cytotoxicity against human MCF7 cells; type: functional
A549 = assay: Cytotoxicity against human A549 cells; type: functional
HT-29 = assay: Cytotoxicity against human HT-29 cells; type: functional
Artemia = assay: Toxicity in brine shrimp; type: organism-based; conditions: in vivo
[1] = Cytotoxicity against mouse 9PS cells; type: functional
[2] = system: Agrobacterium tumefaciens; assay: Antitumor activity against Agrobacterium tumefaciens-induced crown gall tumors in potato by disk test; type: functional
[3] = Cytotoxicity against human 9KB cells; type: functional; conditions: read-out: ED50 (the source's name)
[4] = In vivo antitumor activity against mouse 3PS cells at 0.25 mg/kg, relative to control; type: functional

SMILES	EC50 (MCF7; Homo sapiens, MCF7, read-out: ED50 (the source's name)) [µg/mL]	EC50 (A549; Homo sapiens, A549, read-out: ED50 (the source's name)) [µg/mL]	EC50 (HT-29; Homo sapiens, HT-29, read-out: ED50 (the source's name)) [µg/mL]	LC50 (Artemia) [ppm]	EC50 ([1]; Mus musculus, read-out: ED50 (the source's name)) [µg/mL]	inhibition (INH) [2] [%]	ED50 (MCF7) [×10⁻⁵ ug/ml]	EC50 [3] [µg/mL]	ED50 (A549) [×10⁻⁵ ug/ml]	ED50 (HT-29) [×10⁻⁵ ug/ml]	T/C [4] [%]	ED50 [1] [×10⁻⁴ ug/ml]
CC[C@H]1CN2CCc3cc(OC)c(OC)cc3[C@@H]2C[C@@H]1CC1=NCCc2cc(O)c(OC)cc21 [PSYCHOTRINE]	> 10	> 10	> 10	> 1000	1 (≈ 2.15 µM)							
CC[C@H]1CN2CCc3cc(OC)c(OC)cc3[C@@H]2C[C@@H]1C[C@H]1NCCc2c1[nH]c1ccc(O)cc21 [TUBULOSINE]				0.02		81	<1	0.01 (≈ 0.021 µM)	<1	<1	186	3.8
